Columns and labels:
[1] = test system: STAM Model of Non-alcoholic Steatohepatitis; assay: In vivo efficacy study in the STAM model of non-alcoholic steatohepatitis; set-up: species or system C57BL/6 mice; conditions: for NAFLD Activity Score (NAS) compared with the STAM-Vehicle group: FIG. 1.1
From the text: Example: In Vivo Efficacy Study of cenicriviroc in combination with Compound A (“NVP-CH-4”) and Compound B (“NVP-CH-5”) in the STAM Model of Non-alcoholic Steatohepatitis (Treatment period: 6 to 9 wks or 9 to12 wks)
The study involves 14-day-pregnant C57BL/6 mice. NASH was established by a single subcutaneous injection of […] streptozotocin (Sigma, USA) after birth and feeding with a high fat diet (HFD, 57% kcal fat, CLEA Japan, Japan) ad libitum after 4 weeks of age (day 28±2). Randomization of NASH mice into six groups of 12 mice at 6 weeks of age (day 42±2) and six groups of 12 mice at 9 weeks of age (day 63±2), the day before the start of treatment, respectively. NASH animals were dosed from age 6-9 weeks (Study 1), or from age 9-12 weeks (Study 2) with either: vehicle, cenicriviroc, Compound A (“NVP-CH-4”), Compound B (“NVP-CH-5”), cenicriviroc+Compound A or cenicriviroc+Compound B. A non-disease vehicle-control group of 12 mice was included in both Study 1 and Study 2. These animals were fed with a normal diet (CE-2; CLEA Japan) ad libitum.
PK samples were collected and stored at −60° C. Animals were dosed according to the dosing schedule below. Each animal was sacrificed 5 hours after last morning dose on the last day of study treatment (the evening dose of cenicriviroc or vehicle […] that day due to sacrifice).
Dosing: • Cenicriviroc was prepared in 0.5% (w/v) methylcellulose with 1% Tween® 80 in sterile water for injection (USP). • Compound A and Compound B were prepared in 0.5% (w/v) methylcellulose (400 cPs) aqueous solution containing 0.5% (v/v) polysorbate 80, NF, in reverse osmosis water. • In general, cenicriviroc monotherapy was administered twice daily, 12 hours apart (AM and PM). For Compound A or Compound B monotherapy groups, drug was administered once daily in the morning with vehicle alone in the evening (12 hours after the morning dose).
End of Treatment Measurements: Mice were sacrificed at 9 weeks of age (study 1) or at 12 weeks of age (study 2).
The following biochemical assays were performed: Non-fasting blood glucose in whole blood by Life Check (Eidia, Japan); serum ALT by FUJI DRI-CHEM (Fujifilm, Japan); serum triglyceride; serum MCP-1, RANTES (CCLS) and MIP-1α/MIP-1 quantification by a commercial ELISA kit; liver triglyceride by Triglyceride E-test kit (Wako, Japan); liver hydroxyproline quantification by hydrolysis method; histological analyses for liver section; HE staining and estimation of NAFLD Activity score; Sirius-red staining and estimation of fibrosis area (with and without perivascular space subtracted); oil red staining and estimation of fat deposition area; F4/80 immunohistochemistry staining and estimation of inflammation area; alpha-SMA immunohistochemistry staining and estimation of α-SMA positive area Gene expression assays using total RNA from the liver.
Statistical tests were performed using one-way ANOVA followed by Dunnett's test and the Mann-Whitney test, as appropriate, for the multiple group comparisons. P values <0.05 are considered statistically significant.

[2] = test system: NASH in adults with liver fibrosis; conditions: cited from earlier work
PBC = PBC patients; cited from earlier work
[3] = test system: nonalcoholic steatohepatitis patients; conditions: cited from earlier work
[4] = Study 1, treatment week 6-9, CVC 50 mg/kg AM and PM, Compound A 0.1 mg/kg, Compound B 10 mg/kg
[5] = NASH adults with liver fibrosis, one year
[6] = Study 2, treatment week 9-12, same doses

**Q.** Which results are given for CCCCOCCOc1ccc(-c2ccc3c(c2)/C=C(/C(=O)Nc2ccc([S@@+]([O-])Cc4cncn4CCC)cc2)CCCN3CC(C)C)cc1 [CVC, (S,E)-8-(4-(2-butoxyethoxy)phenyI)-1-(2-methylpropyl)-N-(4-(((1-propyl-1H-imidazol-5-yl)methyl)sulfinyl)phenyl)-1,2,3,4-tetrahydrobenzo[b]azocine-5-carboxamide]?
**A.** NAFLD Activity Score (NAS) compared with the STAM-Vehicle group [1, 4]: significant reductions in NAS; fibrosis [2, 5]: reduction of fibrosis; improvement of NAS [2, 5]: no significant impact; adverse effects ([2]; patients): can induce fatigue or diarrhea in a small part of the patients

**Q.** Which “NAFLD Activity Score (NAS) compared with the STAM-Vehicle group” value [1, 4] does the source give for O=C(O)c1cc(F)c2nc(N3C4CCC3CC(OCc3c(-c5ccccc5OC(F)(F)F)noc3C3CC3)C4)sc2c1 (centres unmarked) [Compound A, 2-[3-({5-cyclopropyl-3-[2-(trifluoromethoxy)phenyl]-1,2-oxazol-4-yl}methoxy)-8-azabicyclo[3.2.1]octan-8-yl]-4-fluoro-1,3-benzothiazole-6-carboxylic acid] here?
**A.** significant reductions in NAS

**Q.** What about the “NAFLD Activity Score (NAS) compared with the STAM-Vehicle group” value [1, 6] of the same compound?
**A.** significant reductions in NAS

**Q.** Which results are given for Cn1nc(C(=O)N(Cc2ccccc2)Cc2ccc(C(=O)O)cc2)c2c1-c1cc(Cl)ccc1OC2 [Compound B, 4-((N-benzyl-8-chloro-1-methyl-1,4-dihydrochromeno[4,3-c]pyrazole-3 carboxamido)methyl)benzoic acid]?
**A.** NAFLD Activity Score (NAS) compared with the STAM-Vehicle group [1, 4]: significant reductions in NAS; inflammatory cell infiltration score compared with the STAM-Vehicle group ([1]; Study 1, week 6-9, FIG. 1.2): significant reductions in the inflammatory cell infiltration score; NAFLD Activity Score (NAS) compared with the STAM-Vehicle group [1, 6]: significant reductions in NAS

**Q.** With C[C@H](CCC(=O)O)[C@H]1CC[C@H]2[C@@H]3[C@@H](O)C[C@@H]4C[C@H](O)CC[C@]4(C)[C@H]3CC[C@]12C [UDCA, Ursodeoxycholic acid] as the compound, how does the “population that does not respond” value (PBC) read?
**A.** 30-40%

**Q.** Which “safety concerns of long term administration” value [3] does the source give for CC[C@H]1[C@@H](O)[C@@H]2[C@H](CC[C@]3(C)[C@@H]([C@H](C)CCC(=O)O)CC[C@@H]23)[C@@]2(C)CC[C@@H](O)C[C@@H]12 [obeticholic acid, Obeticholic acid] here?
**A.** can be associated with pruritus, as well as with increased LDL cholesterol

Source: patent US20210290610A1, “COMBINATION OF FXR AGONISTS” (priority 2016, published 2021)
